What was measured:
p300 = p300 (Homo sapiens, UniProt Q09472); test: […]acetyl-CoA nucleosome acetyltransferase assay; type: biochemical
CBP = CBP (Homo sapiens, UniProt Q92793); test: H3K18ac Western blot of nucleosome acetylation by purified CBP; type: biochemical
Sequence of CBP (Q92793 2-2442): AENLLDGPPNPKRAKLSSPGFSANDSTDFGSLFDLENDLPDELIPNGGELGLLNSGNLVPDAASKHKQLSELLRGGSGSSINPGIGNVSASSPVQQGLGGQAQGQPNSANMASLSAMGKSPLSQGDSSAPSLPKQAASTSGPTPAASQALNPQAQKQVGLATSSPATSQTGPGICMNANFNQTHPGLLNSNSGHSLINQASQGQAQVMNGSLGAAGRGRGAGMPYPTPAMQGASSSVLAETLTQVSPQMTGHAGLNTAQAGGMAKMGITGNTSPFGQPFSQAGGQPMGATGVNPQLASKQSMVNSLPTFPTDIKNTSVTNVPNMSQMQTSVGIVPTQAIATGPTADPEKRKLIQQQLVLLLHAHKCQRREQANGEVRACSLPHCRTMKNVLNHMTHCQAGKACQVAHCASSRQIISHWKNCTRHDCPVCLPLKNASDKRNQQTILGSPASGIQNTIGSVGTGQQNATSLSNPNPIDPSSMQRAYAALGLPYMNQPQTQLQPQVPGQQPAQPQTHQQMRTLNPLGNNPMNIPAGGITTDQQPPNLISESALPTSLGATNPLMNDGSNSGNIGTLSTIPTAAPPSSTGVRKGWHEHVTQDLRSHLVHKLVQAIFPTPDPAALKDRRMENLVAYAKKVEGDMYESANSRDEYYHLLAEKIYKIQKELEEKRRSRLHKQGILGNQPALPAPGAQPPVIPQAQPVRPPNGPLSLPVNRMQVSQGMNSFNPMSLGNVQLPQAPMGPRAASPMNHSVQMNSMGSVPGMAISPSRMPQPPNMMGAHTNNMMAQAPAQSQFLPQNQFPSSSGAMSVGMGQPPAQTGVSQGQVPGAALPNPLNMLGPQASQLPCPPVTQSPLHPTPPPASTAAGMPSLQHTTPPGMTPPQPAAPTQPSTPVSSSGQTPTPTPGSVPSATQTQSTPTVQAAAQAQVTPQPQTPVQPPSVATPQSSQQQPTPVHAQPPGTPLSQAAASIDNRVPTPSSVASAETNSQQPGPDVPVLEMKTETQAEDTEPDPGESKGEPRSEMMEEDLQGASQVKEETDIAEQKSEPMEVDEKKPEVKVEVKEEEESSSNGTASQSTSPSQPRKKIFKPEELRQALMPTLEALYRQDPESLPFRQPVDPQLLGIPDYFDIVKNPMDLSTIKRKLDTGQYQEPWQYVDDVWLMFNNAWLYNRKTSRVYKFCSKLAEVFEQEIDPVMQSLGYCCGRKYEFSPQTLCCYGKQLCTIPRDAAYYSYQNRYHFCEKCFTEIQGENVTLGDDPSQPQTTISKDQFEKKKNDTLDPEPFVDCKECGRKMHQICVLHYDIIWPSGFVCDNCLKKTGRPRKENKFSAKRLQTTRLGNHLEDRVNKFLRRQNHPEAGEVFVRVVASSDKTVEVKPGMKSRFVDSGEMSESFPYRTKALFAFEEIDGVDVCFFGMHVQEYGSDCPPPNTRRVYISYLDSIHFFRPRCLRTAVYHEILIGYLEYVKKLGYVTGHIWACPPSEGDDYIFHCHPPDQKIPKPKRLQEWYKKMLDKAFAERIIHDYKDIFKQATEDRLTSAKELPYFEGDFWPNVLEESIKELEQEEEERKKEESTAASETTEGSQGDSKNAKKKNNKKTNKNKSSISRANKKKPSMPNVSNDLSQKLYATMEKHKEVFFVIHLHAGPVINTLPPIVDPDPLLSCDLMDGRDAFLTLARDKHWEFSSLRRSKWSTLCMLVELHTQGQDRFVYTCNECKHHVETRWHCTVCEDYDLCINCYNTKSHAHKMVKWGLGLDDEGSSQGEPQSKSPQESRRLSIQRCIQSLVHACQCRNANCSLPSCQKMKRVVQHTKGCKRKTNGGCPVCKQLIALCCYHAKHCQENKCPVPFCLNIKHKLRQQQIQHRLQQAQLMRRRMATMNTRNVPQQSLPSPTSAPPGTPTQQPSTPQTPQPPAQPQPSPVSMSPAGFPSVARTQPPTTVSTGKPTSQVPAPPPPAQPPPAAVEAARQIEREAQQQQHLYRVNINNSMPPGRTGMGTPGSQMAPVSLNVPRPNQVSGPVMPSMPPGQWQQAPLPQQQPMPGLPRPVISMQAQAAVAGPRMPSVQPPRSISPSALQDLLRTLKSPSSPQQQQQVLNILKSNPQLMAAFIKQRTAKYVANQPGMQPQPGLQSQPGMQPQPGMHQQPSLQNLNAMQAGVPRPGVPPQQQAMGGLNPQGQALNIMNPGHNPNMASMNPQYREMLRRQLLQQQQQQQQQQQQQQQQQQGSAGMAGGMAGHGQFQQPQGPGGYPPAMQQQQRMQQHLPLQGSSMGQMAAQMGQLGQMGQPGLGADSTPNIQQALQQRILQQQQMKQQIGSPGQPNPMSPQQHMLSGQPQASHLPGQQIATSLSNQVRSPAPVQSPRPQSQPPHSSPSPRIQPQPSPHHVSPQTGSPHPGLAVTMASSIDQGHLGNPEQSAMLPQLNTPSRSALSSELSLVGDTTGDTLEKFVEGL

Sequence of p300 (Q09472 2-2414): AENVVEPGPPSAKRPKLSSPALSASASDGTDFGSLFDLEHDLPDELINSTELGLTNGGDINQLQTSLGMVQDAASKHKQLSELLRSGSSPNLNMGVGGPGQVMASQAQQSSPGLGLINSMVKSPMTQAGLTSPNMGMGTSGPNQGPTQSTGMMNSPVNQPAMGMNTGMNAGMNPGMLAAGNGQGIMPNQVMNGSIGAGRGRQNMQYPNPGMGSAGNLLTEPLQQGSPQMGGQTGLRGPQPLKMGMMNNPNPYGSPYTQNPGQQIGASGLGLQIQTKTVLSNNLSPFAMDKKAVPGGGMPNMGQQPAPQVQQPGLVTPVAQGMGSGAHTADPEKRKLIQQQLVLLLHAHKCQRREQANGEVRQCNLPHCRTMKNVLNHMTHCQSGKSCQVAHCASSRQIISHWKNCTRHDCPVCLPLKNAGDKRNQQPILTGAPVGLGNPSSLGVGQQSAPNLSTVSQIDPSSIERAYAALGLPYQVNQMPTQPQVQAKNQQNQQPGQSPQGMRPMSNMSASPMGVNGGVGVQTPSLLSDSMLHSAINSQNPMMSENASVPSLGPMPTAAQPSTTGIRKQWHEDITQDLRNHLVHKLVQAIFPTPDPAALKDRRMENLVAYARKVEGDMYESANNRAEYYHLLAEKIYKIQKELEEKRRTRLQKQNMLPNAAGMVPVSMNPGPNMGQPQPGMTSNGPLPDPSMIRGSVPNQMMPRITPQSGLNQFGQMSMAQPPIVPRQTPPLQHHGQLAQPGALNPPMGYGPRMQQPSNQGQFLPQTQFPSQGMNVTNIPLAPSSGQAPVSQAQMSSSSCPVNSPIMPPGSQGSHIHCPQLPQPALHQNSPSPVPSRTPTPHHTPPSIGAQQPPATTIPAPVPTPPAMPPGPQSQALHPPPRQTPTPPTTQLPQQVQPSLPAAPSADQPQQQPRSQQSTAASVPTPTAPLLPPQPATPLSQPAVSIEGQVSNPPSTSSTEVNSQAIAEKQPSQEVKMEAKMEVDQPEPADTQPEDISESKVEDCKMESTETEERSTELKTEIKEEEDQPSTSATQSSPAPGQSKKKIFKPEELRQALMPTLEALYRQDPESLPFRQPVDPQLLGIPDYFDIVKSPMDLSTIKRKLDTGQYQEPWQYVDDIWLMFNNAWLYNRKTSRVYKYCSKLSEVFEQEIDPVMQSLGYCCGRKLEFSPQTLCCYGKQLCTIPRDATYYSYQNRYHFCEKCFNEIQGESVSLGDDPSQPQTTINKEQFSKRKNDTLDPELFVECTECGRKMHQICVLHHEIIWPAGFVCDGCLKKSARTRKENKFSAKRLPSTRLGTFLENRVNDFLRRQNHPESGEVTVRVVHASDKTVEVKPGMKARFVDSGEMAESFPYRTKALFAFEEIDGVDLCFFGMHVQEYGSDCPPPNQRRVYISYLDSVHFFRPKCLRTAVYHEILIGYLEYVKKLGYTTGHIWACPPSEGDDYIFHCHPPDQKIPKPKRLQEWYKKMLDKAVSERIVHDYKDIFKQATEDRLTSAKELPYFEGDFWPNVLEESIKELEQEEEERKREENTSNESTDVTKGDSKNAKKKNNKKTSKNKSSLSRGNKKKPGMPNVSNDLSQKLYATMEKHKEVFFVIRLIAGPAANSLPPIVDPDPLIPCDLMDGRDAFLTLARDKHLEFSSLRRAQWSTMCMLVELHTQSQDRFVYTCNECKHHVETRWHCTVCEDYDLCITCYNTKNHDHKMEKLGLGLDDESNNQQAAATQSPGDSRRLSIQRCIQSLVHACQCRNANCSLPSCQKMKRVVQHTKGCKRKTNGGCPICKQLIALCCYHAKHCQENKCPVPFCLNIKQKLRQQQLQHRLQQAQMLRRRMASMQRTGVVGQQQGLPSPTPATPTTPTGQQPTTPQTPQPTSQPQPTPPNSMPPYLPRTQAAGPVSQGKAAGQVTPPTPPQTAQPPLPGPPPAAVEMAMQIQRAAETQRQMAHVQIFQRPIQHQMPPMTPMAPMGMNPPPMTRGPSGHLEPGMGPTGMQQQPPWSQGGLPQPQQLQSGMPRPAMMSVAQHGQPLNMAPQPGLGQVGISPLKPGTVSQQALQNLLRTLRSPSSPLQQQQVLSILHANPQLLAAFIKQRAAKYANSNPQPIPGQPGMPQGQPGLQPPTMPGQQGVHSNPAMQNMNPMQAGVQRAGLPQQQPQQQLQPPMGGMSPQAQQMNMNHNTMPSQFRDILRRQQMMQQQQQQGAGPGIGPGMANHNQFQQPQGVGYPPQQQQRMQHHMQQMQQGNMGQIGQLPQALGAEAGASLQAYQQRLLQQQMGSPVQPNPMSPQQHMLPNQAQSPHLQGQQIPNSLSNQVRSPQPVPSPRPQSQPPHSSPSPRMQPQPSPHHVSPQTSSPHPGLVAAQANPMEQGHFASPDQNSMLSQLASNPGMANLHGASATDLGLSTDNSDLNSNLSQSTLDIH

CCC(=O)N1CCOc2c(cc(-c3ccc(OC)c(OC)c3)cc2OC[C@H]2CCCN(C)C2)C1 [I-CBP112, 1-[7-(3,4-dimethoxyphenyl)-9-{[(3S)-1-methylpiperidin-3-yl]-methoxy}-2,3,4,5-tetrahydro-1,4-benzoxazepin-4-yl]propan-1-one]
EC50 (p300): 11 ± 3 µM
EC50 (CBP): ~2 µM

From article PMC5007619 (Biochemistry, 2016)
